One assay deals with T1, Human AhR (Homo sapiens, UniProt P35869).
T1 construct: host or cells: U87 glioblastoma cells, stably transfected with DRE-driven firefly luciferase and constitutive renilla reporter constructs
T1 sequence (P35869 11-848): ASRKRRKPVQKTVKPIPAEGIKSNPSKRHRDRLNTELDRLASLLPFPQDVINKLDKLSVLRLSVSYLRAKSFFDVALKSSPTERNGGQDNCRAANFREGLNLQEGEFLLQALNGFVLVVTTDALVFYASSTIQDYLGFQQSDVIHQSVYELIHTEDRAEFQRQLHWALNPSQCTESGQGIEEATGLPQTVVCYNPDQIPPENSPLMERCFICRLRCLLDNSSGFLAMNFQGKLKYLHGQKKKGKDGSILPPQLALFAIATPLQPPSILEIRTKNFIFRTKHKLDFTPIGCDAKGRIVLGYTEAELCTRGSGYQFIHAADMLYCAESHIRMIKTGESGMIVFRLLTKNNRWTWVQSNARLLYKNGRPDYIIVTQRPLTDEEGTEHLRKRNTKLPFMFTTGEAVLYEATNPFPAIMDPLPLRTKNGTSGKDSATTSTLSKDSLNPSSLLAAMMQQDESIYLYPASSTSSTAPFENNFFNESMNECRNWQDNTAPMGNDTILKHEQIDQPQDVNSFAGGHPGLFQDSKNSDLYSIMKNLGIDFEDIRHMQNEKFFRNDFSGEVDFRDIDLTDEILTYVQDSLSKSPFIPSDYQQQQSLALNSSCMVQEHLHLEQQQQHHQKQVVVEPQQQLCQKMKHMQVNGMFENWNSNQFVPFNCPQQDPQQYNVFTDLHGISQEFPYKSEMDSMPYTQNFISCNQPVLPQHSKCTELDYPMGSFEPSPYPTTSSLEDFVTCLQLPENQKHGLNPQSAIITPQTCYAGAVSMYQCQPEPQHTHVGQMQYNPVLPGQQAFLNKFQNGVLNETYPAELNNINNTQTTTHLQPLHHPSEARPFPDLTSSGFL
Description: Transactivation assay in human cell line (in vitro assay 1: antagonism). In kind it is cell-based. The settings on record: U87 glioblastoma cells, AHR inducible (DRE) firefly luciferase reporter, 150 μM kynurenic acid, 20 hours. Put shortly: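 U87 glioblastoma cells with endogenous AHR, stably carrying DRE-driven firefly luciferase and constitutive Renilla reporters, prestimulated with kynurenic acid before compound. Dual luciferase read-out; Renilla signal used to flag toxicity.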

A further assay has as its target T2, Mouse AhR (Mus musculus, UniProt P30561).
T2 sequence (P30561 1-848): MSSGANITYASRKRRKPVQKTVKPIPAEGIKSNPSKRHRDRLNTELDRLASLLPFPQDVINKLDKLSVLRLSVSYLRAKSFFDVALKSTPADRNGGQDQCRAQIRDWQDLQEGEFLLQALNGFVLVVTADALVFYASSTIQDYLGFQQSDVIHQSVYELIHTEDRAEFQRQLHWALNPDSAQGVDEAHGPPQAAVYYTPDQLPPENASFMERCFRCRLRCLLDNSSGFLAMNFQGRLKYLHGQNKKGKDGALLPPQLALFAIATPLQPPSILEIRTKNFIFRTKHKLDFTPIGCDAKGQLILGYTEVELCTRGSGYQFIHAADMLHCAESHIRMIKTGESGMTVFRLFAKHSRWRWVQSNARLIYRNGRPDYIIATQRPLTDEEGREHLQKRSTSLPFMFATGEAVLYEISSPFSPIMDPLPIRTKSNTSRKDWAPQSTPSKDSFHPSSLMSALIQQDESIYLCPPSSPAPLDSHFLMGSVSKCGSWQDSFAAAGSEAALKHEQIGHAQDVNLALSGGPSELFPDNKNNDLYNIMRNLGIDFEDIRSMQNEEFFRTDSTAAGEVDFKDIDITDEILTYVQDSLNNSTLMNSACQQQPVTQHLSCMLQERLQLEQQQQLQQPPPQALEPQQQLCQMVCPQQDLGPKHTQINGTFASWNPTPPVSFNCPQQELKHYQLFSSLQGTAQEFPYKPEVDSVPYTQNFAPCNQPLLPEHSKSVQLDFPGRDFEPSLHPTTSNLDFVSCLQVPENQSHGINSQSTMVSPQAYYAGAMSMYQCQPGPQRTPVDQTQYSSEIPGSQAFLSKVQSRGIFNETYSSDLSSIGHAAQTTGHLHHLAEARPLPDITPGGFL
Description: Transactivation assay in mouse cell line (in vitro assay 2: antagonism). In kind it is cell-based. The settings on record: Hepa 1c1c7 cells, AHR inducible (DRE) firefly luciferase reporter, 200 μM kynurenic acid, 20 hours. An outline of the steps:
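Hepa 1c1c7 cells express AhR endogenously and stably carry a DRE-driven firefly luciferase reporter. They were prestimulated with the agonist kynurenic acid before compound testing for antagonism. Luciferase read by SteadyGlo luminescence.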
A general note: Reporter assays use an easily measured gene product as a stand-in for the process of interest.

By IC50 is commonly meant the concentration that inhibits the measured activity by half. High values mean weaker potency, low ones greater potency.

In the case of `Cn1cc(-c2nc(C(=O)N[C@H](CO)CF)cc(-c3ccc(OC(F)(F)F)cc3)n2)cn1` [Example 95, N-[(2R)-1-fluoro-3-hydroxypropan-2-yl]-2-(1-methyl-1H-pyrazol-4-yl)-6-[4-(trifluoromethoxy)phenyl]pyrimidine-4-carboxamide], the values for the IC50 on Human AhR and on Mouse AhR were 3.48 nM and 4 nM, respectively.
Take `Cn1cc(-c2nc(C(=O)N[C@H](CO)C3CC3)cc(-c3ccc(OC(F)(F)F)cc3)n2)cn1` [Example 99, N-[(1S)-1-cyclopropyl-2-hydroxyethyl]-2-(1-methyl-1H-pyrazol-4-yl)-6-[4-(trifluoromethoxy)phenyl]pyrimidine-4-carboxamide]: the results for the IC50 on Human AhR and against Mouse AhR were 17.6 nM and 21.5 nM, respectively.
For `Cn1cc(-c2nc(C(=O)N[C@@H](C#N)CO)cc(-c3ccc(OC(F)(F)F)cc3)n2)cn1` [Example 101, N-[(1S)-1-cyano-2-hydroxyethyl]-2-(1-methyl-1H-pyrazol-4-yl)-6-[4-(trifluoromethoxy)phenyl]pyrimidine-4-carboxamide], in that order: 22.3 nM and 18.9 nM.
Taken in the same sequence, the figures for `C[C@H](NC(=O)c1cc(-c2ccc(OC(F)(F)F)cc2)nc(-c2cnn(C)c2)n1)C(C)(C)O` [Example 102, N-[(2S)-3-hydroxy-3-methylbutan-2-yl]-2-(1-methyl-1H-pyrazol-4-yl)-6-[4-(trifluoromethoxy)phenyl]pyrimidine-4-carboxamide] were 6.86 nM and 3.26 nM.
On to `Cn1cc(-c2nc(C(=O)N[C@H]3COC[C@H]3O)cc(-c3ccc(OC(F)(F)F)cc3)n2)cn1` [Example 103, N-[(3S,4S)-4-hydroxytetrahydrofuran-3-yl]-2-(1-methyl-1H-pyrazol-4-yl)-6-[4-(trifluoromethoxy)phenyl]pyrimidine-4-carboxamide], for which the figures for the IC50 at Human AhR and on Mouse AhR were 6.74 nM and 5.82 nM, respectively.
Taken in the same sequence, the figures for `CC(NC(=O)c1cc(-c2ccc(OC(F)(F)F)cc2)nc(-c2cnn(C)c2)n1)C(O)CO` (centres unmarked) [Example 104, N-(3,4-dihydroxybutan-2-yl)-2-(1-methyl-1H-pyrazol-4-yl)-6-[4-(trifluoromethoxy)phenyl]pyrimidine-4-carboxamide] were 12.5 nM and 20.4 nM.
For `Cn1cc(-c2nc(C(=O)NC3CCCC(F)(F)C3O)cc(-c3ccc(OC(F)(F)F)cc3)n2)cn1` (centres unmarked) [Example 106, N-(3,3-difluoro-2-hydroxycyclohexyl)-2-(1-methyl-1H-pyrazol-4-yl)-6-[4-(trifluoromethoxy)phenyl]pyrimidine-4-carboxamide], in that order: 7.32 nM and 20 nM.
For `C[C@@H](CO)NC(=O)c1cc(-c2ccc(C(F)(F)F)cc2)nc(-c2cccnc2)n1` [Example 117, N-[(2S)-1-hydroxypropan-2-yl]-2-(pyridin-3-yl)-6-[4-(trifluoromethyl)phenyl]pyrimidine-4-carboxamide], in that order: 1.26 nM and 1.33 nM.
As to `O=C(N[C@H]1COC[C@@H]1O)c1cc(-c2ccc(OC(F)(F)F)cc2)nc(-c2cccnc2)n1` [Example 118, N-[(3S,4R)-4-hydroxyoxolan-3-yl]-2-(pyridin-3-yl)-6-[4-(trifluoromethoxy)phenyl]pyrimidine-4-carboxamide], the IC50 against Human AhR came to 2.34 nM; against Mouse AhR, 3.4 nM.
Taken in the same sequence, the figures for `C[C@H](NC(=O)c1cc(-c2ccc(C(F)F)cc2)nc(-c2cccnc2)n1)C(C)(C)O` [Example 119, 6-[4-(difluoromethyl)phenyl]-N-[(2S)-3-hydroxy-3-methylbutan-2-yl]-2-(pyridin-3-yl)pyrimidine-4-carboxamide] were 2.88 nM and 6.81 nM.

The record behind these values is US11304946B2, “2-hetarylpyrimidine-4-carboxamides as aryl hydrocarbon receptor antagonists” (Bayer Aktiengesellschaft, priority 2017, dated 2022).
